Source: US11987588B2, “Modulators of the beta-3 adrenergic receptor useful for the treatment or prevention of heart failure and disorders related thereto” (Arena Pharmaceuticals, Inc., priority 2017, dated 2024)

The compounds below were run against Beta-3 Adrenergic Receptor (Homo sapiens (Human), UniProt P13945) (assay: Homogeneous Time-Resolved Fluorescence (HTRF) cAMP antagonist assay, IC50 determination). Details: CHO-K1 cells stably expressing recombinant receptor, isoproterenol at EC90.
Format: cell-based
Outline: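 In this functional readout, recombinant CHO-K1 cells received compound, then isoproterenol at its EC90. After 1 h at room temperature, cAMP levels were determined by HTRF using an on-plate standard curve, and IC50 values were fitted.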

Chain of Beta-3 Adrenergic Receptor (P13945 whole entry, species assumed): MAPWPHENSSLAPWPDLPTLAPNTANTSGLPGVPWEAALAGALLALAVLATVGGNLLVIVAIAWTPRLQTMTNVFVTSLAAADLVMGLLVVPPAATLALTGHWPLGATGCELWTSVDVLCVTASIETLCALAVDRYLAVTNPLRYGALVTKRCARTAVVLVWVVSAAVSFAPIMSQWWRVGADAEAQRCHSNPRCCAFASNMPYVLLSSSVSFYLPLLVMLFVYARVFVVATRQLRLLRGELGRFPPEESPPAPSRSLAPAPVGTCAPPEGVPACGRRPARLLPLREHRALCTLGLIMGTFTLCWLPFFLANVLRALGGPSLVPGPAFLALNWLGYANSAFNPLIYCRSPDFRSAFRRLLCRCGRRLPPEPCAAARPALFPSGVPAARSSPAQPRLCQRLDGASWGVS

| SMILES | IC50 |
| --- | --- |
| NS(=O)(=O)c1cccc(OC[C@@H](O)CN[C@H]2COC3(CCN(S(=O)(=O)c4cnc5ccccc5c4)CC3)C2)c1 [Compound 562, 3-((S)-2-hydroxy-3-((R)-8-(quinolin-3-ylsulfonyl)-1-oxa-8-azaspiro[4.5]decan-3-ylamino)propoxy)benzenesulfonamide] | 16.3 nM |
| O=S(=O)(NCCF)c1cccc(OC[C@@H](O)CNC2COC3(CCN(S(=O)(=O)c4ccc5ccccc5c4)CC3)C2)c1 (stereo partly drawn) [Compound 356, N-(2-fluoroethyl)-3-((2S)-2-hydroxy-3-(8-(naphthalen-2-ylsulfonyl)-1-oxa-8-azaspiro[4.5]decan-3-ylamino)propoxy)benzenesulfonamide] | 16.9 nM |
| CNS(=O)(=O)c1cccc(OC[C@@H](O)CNC2COC3(CCN(S(=O)(=O)c4cccc(C)c4C)CC3)C2)c1 (stereo partly drawn) [Compound 265, 3-((2S)-3-(8-(2,3-dimethylphenylsulfonyl)-1-oxa-8-azaspiro[4.5]decan-3-ylamino)-2-hydroxypropoxy)-N-methylbenzenesulfonamide] | 28.8 nM |
| CNS(=O)(=O)c1cccc(OC[C@@H](O)CNC2COC3(CCN(S(=O)(=O)c4ccc(F)c(F)c4)CC3)C2)c1 (stereo partly drawn) [Compound 141, 3-((2S)-3-(8-(3,4-difluorophenylsulfonyl)-1-oxa-8-azaspiro[4.5]decan-3-ylamino)-2-hydroxypropoxy)-N-methylbenzenesulfonamide] | 35.1 nM |
| CNS(=O)(=O)c1cccc(OC[C@@H](O)CN[C@H]2COC3(CCN(S(=O)(=O)c4cnc5cn[nH]c5c4)CC3)C2)c1 [Compound 502, 3-((S)-3-((R)-8-(1H-pyrazolo[4,3-b]pyridin-6-ylsulfonyl)-1-oxa-8-azaspiro[4.5]decan-3-ylamino)-2-hydroxypropoxy)-N-methylbenzenesulfonamide] | 18.9 nM |
| CNS(=O)(=O)c1cccc(OC[C@@H](O)CN[C@H]2COC3(CCN(S(=O)(=O)c4ccc5ccccc5c4)CC3)C2)c1 [Compound 30, 3—((S)-2-hydroxy-3-((R)-8-(naphthalen-2-ylsulfonyl)-1-oxa-8-azaspiro[4.5]decan-3-ylamino)propoxy)-N-methylbenzenesulfonamide] | 4.41 nM |
| CNS(=O)(=O)c1cccc(OC[C@@H](O)CNC2COC3(CCN(S(=O)(=O)c4cccc(-c5ccn(C)c5)c4)CC3)C2)c1 (stereo partly drawn) [Compound 76, 3-((2S)-2-hydroxy-3-(8-(3-(1-methyl-1H-pyrrol-3-yl)phenylsulfonyl)-1-oxa-8-azaspiro[4.5]decan-3-ylamino)propoxy)-N-methylbenzenesulfonamide] | 26.5 nM |
| Cc1ccc(F)c(S(=O)(=O)N2CCC3(CC2)CC(NC[C@H](O)COc2cccc(S(=O)(=O)N(C)C)c2)CO3)c1 (stereo partly drawn) [Compound 248, 3-((2S)-3-(8-(2-fluoro-5-methylphenylsulfonyl)-1-oxa-8-azaspiro[4.5]decan-3-ylamino)-2-hydroxypropoxy)-N,N-dimethylbenzenesulfonamide] | 40.5 nM |
| O=S(=O)(NCCO)c1cccc(OC[C@@H](O)CNC2COC3(CCN(S(=O)(=O)c4ccc5ccccc5c4)CC3)C2)c1 (stereo partly drawn) [Compound 12, 3-((2S)-2-hydroxy-3-(8-(naphthalen-2-ylsulfonyl)-1-oxa-8-azaspiro[4.5]decan-3-ylamino)propoxy)-N-(2-hydroxyethyl)benzenesulfonamide] | 31.7 nM |
| CNS(=O)(=O)c1cccc(OC[C@@H](O)CN[C@H]2COC3(CCN(S(=O)(=O)c4cccc(-c5ccc(CNCCC(C)C)cc5)c4)CC3)C2)c1 [Compound 364, 3-((S)-2-hydroxy-3-((R)-8-(4′-((isopentylamino)methyl)biphenyl-3-ylsulfonyl)-1-oxa-8-azaspiro[4.5]decan-3-ylamino)propoxy)-N-methylbenzenesulfonamide] | 144 nM |
| CNS(=O)(=O)c1cccc(OC[C@@H](O)CN[C@H]2COC3(CCN(S(=O)(=O)c4cn(C)c5ccccc5c4=O)CC3)C2)c1 [Compound 494, 3-((S)-2-hydroxy-3-((R)-8-(1-methyl-4-oxo-1,4-dihydroquinolin-3-ylsulfonyl)-1-oxa-8-azaspiro[4.5]decan-3-ylamino)propoxy)-N-methylbenzenesulfonamide] | 62.4 nM |

Other lines, results leading:

| IC50 | SMILES |
| --- | --- |
| 99.9 nM | CNS(=O)(=O)c1cccc(OC[C@@H](O)CNC2COC3(CCN(S(=O)(=O)c4cccc(-c5cccc(N(C)C)c5)c4)CC3)C2)c1 (stereo partly drawn) [Compound 83, 3-((2S)-3-(8-(3′-(dimethylamino)biphenyl-3-ylsulfonyl)-1-oxa-8-azaspiro[4.5]decan-3-ylamino)-2-hydroxypropoxy)-N-methylbenzenesulfonamide] |
| 42.6 nM | CNS(=O)(=O)c1cccc(OC[C@@H](O)CNC2COC3(CCN(S(=O)(=O)c4cc(C)oc4C(F)(F)F)CC3)C2)c1 (stereo partly drawn) [Compound 162, 3-((2S)-2-hydroxy-3-(8-(5-methyl-2-(trifluoromethyl)furan-3-ylsulfonyl)-1-oxa-8-azaspiro[4.5]decan-3-ylamino)propoxy)-N-methylbenzenesulfonamide] |
| 22.3 nM | CNS(=O)(=O)c1cccc(OC[C@@H](O)CNC2COC3(CCN(S(=O)(=O)c4ccc(C#N)c(Cl)c4)CC3)C2)c1 (stereo partly drawn) [Compound 239, 3-((2S)-3-(8-(3-chloro-4-cyanophenylsulfonyl)-1-oxa-8-azaspiro[4.5]decan-3-ylamino)-2-hydroxypropoxy)-N-methylbenzenesulfonamide] |
| 67.9 nM | CNS(=O)(=O)c1cccc(OC[C@@H](O)CNC2COC3(CCN(S(=O)(=O)c4ccc(OC)c5ccccc45)CC3)C2)c1 (stereo partly drawn) [Compound 258, 3-((2S)-2-hydroxy-3-(8-(4-methoxynaphthalen-1-ylsulfonyl)-1-oxa-8-azaspiro[4.5]decan-3-ylamino)propoxy)-N-methylbenzenesulfonamide] |
| 20.6 nM | CNS(=O)(=O)c1cccc(OC[C@@H](O)CNC2COC3(CCN(S(=O)(=O)c4ccc(F)c(C)c4)CC3)C2)c1 (stereo partly drawn) [Compound 149, 3-((2S)-3-(8-(4-fluoro-3-methylphenylsulfonyl)-1-oxa-8-azaspiro[4.5]decan-3-ylamino)-2-hydroxypropoxy)-N-methylbenzenesulfonamide] |
| 14.6 nM | CNS(=O)(=O)c1cccc(OC[C@@H](O)CNC2COC3(CCN(S(=O)(=O)c4cccc(-c5ccc(CN)s5)c4)CC3)C2)c1 (stereo partly drawn) [Compound 369, 3-((2S)-3-(8-(3-(5-(aminomethyl)thiophen-2-yl)phenylsulfonyl)-1-oxa-8-azaspiro[4.5]decan-3-ylamino)-2-hydroxypropoxy)-N-methylbenzenesulfonamide] |
| 1510 nM | CNS(=O)(=O)c1cccc(OC[C@@H](O)CN[C@H]2COC3(CCN(S(=O)(=O)c4cnc5c(c4)CNC5)CC3)C2)c1 [Compound 482, 3-((S)-3-((R)-8-(6,7-dihydro-5H-pyrrolo[3,4-b]pyridin-3-ylsulfonyl)-1-oxa-8-azaspiro[4.5]decan-3-ylamino)-2-hydroxypropoxy)-N-methylbenzenesulfonamide] |
| 51.8 nM | CNS(=O)(=O)c1cccc(OC[C@@H](O)CN[C@H]2COC3(CCN(S(=O)(=O)c4ccc(-c5ccc(CN(C)C)cc5)cc4)CC3)C2)c1 [Compound 405, 3-((S)-3-((R)-8-(4′-((dimethylamino)methyl)biphenyl-4-ylsulfonyl)-1-oxa-8-azaspiro[4.5]decan-3-ylamino)-2-hydroxypropoxy)-N-methylbenzenesulfonamide] |
